pIC50: −log10 of the molar value. Where two headings read alike, the source gives them in different places.
Biological target: T1, r-NAAA (Rattus norvegicus, UniProt Q5KTC7)
T1 construct: Lysosomal NAAA protein preparation was obtained by homogenizing male Sprague-Dawley rat lungs; tissue Charles River (animals); host or cells: male Sprague-Dawley rat lung, soluble lysosomal fraction
T1 sequence (Q5KTC7 34-362): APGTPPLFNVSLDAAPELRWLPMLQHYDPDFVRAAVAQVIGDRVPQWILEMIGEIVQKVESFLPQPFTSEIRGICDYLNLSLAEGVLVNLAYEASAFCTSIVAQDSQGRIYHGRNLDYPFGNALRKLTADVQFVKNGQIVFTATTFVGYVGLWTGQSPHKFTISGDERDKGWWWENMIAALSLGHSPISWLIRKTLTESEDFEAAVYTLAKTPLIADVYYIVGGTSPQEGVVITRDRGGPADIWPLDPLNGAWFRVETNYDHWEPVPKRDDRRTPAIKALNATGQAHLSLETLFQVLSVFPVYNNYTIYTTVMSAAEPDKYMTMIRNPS
Assay: UPLC/MS r-NAAA assay
Format: biochemical
Details: for r-NAAA UPLC/MS assay (n.a.): @100 μM
Method: Lysosomal NAAA protein preparation was obtained by homogenizing male Sprague-Dawley rat lungs (Charles River) in 20 mM Tris-HCl buffer pH 7.4 containing 0.32M sucrose. […] Supernatants were then centrifuged at 12,000 xg for 30 min at 4° C. Pellets were then resuspended in PBS pH 7.4 and subjected to a freeze/thaw cycle at −80° C. The suspension was finally centrifuged at 105,000×g for 1 h at 4° C. The supernatant was then used in the enzymatic assay.
NAAA protein preparation was pre-incubated with various concentrations of test compounds or vehicle control in 100 mM NaH2PO4/Citrate buffer, 1% Triton-X, 3 mM DTT (pH 4.5) for 30 min at 37° C. Samples were then incubated with heptadecenoylethanolamide (50 μM, Avanti Polar Lipids) at 37° C. for 30 min. The reaction was terminated by addition of cold methanol containing heptadecanoic acid (NuCheck Prep) as internal standard. Samples were then analyzed by UPLC/MS (Acquity, Waters). […] The column temperature was 40° C. Electrospray ionization was in the negative mode, capillary voltage was 0.5 kV, cone voltage was […], desolvation temperature was 500° C. N2 was used as drying gas at a flow rate of 1000 L/hour and a temperature of 500° C. […] Calibration curves were generated using commercial heptadecenoic acid (NuCheck Prep) Inhibition of NAAA activity was calculated as reduction of heptadecenoic acid in the samples compared to vehicle controls. IC50 values were calculated by non-linear regression analysis of log [concentration]/inhibition curves using GraphPad Prism 5 (GraphPad Software Inc., CA—USA) applying a standard slope curve fitting.

[1] = read-out: r-NAAA UPLC/MS assay % inhib.
[2] = @ 30 μM, read-out: r-NAAA UPLC/MS assay % inhib.

Row | Structure (SMILES) | pIC50 | further results
1 | O=C(N[C@H]1CNC1=O)OCCCC1CCCCC1 [Example 18, 3-Cyclohexylpropyl-N-[(3S)-2-oxoazetidin-3-yl]-carbamate] | 7.40 | –
2 | O=C(N[C@H]1CNC1=O)OCCCCCC1CCCCC1 [Example 19, 5-Cyclohexylpentyl-N-[(3S)-2-oxoazetidin-3-yl]-carbamate] | 7.24 | –
3 | O=C(N[C@H]1CNC1=O)OCCCCC1CCCC1 [Example 20, 4-Cyclopentylbutyl-N-[(3S)-2-oxoazetidin-3-yl]-carbamate] | 7.32 | –
4 | CCCCCCCCOC(=O)N[C@H]1CNC1=O [Example 24, Octyl-N-[(3S)-2-oxoazetidin-3-yl]-carbamate] | 7.80 | –
5 | O=C(N[C@H]1CNC1=O)Oc1ccc(Cc2ccccc2)cc1 [Example 33, (4-Benzylphenyl)-N-[(3S)-2-oxoazetidin-3-yl]-carbamate] | 4.68 | –
6 | O=C(N[C@H]1CNC1=O)OCc1ccccc1C1CCCCC1 [Example 35, (2-Cyclohexylphenyl)-methyl-N-[(3S)-2-oxoazetidin-3-yl]-carbamate] | – | r-NAAA UPLC/MS assay (n.a.): n.a. (n.a. = <10% inhib. @100 μM)
7 | O=C(N[C@H]1CNC1=O)OCCCCc1ccccn1 [Example 37, 4-(2-Pyridyl)-butyl-N-[(3S)-2-oxoazetidin-3-yl]-carbamate] | – | r-NAAA UPLC/MS assay (n.a.): n.a. (n.a. = <10% inhib. @100 μM)
8 | Cc1cccc(-c2ccc(COC(=O)N[C@H]3CNC3=O)cc2C)c1 [Example 42, [3-Methyl-4-(m-tolyl)-phenyl]-methyl-N-[(3S)-2-oxoazetidin-3-yl]-carbamate] | 6.21 | –
9 | Cc1cccc(-c2ccc(COC(=O)N[C@H]3CNC3=O)cc2)c1 [Example 43, [4-(m-Tolyl)-phenyl]-methyl-N-[(3S)-2-oxoazetidin-3-yl]-carbamate] | 6.06 | –
10 | O=C(N[C@H]1CNC1=O)OCc1ccc(-c2ccncc2)cc1 [Example 45, [4-(4-Pyridyl)-phenyl]-methyl-N-[(3S)-2-oxoazetidin-3-yl]-carbamate] | – | inhibition at 30 µM [1]: 48%
11 | O=C(N[C@H]1CNC1=O)OCCCCC1CCOCC1 [Example 48, 4-Tetrahydropyran-4-yl-butyl-N-[(3S)-2-oxoazetidin-3-yl]-carbamate] | 4.90 | –
12 | O=C(N[C@H]1CNC1=O)OCCOCC1CCCCC1 [Example 49, 2-(Cyclohexylmethoxy)-ethyl-N-[(3S)-2-oxoazetidin-3-yl]-carbamate] | 5.78 | –
13 | O=C(N[C@H]1CNC1=O)OCCOCCC1CCCCC1 [Example 51, 2-(2-Cyclohexylethoxy)-ethyl-N-[(3S)-2-oxoazetidin-3-yl]-carbamate] | 6.11 | –
14 | O=C(N[C@H]1CNC1=O)OCc1ccc(C2CCCC2)cc1 [Example 55, (4-Cyclopentylphenyl)-methyl-N-[(3S)-2-oxoazetidin-3-yl]-carbamate] | 7.51 | –
15 | O=C(N[C@H]1CNC1=O)OCc1cccc(-c2ccccc2)c1 [Example 62, (3-Phenylphenyl)-methyl-N-[(3S)-2-oxoazetidin-3-yl]-carbamate] | – | inhibition at 30 µM [1]: 45%
16 | O=C(N[C@H]1CNC1=O)OCc1ccc(OC2CCCCC2)cc1 [Example 64, [4-(Cyclohexoxy)-phenyl]-methyl-N-[(3S)-2-oxoazetidin-3-yl]-carbamate] | 6.80 | –
17 | C#CCCOC(=O)N[C@H]1CNC1=O [Example 65, But-3-ynyl-N-[(3S)-2-oxoazetidin-3-yl]-carbamate] | – | inhibition at 30 µM [2]: 20%
18 | C[C@H]1NC(=O)[C@H]1NC(=O)OCc1ccc(-c2ccccc2)cc1 [Example 77, (4-Phenylphenyl)-methyl-N-[(2R,3S)-2-methyl-4-oxo-azetidin-3-yl]-carbamate] | – | r-NAAA UPLC/MS assay (n.a.): n.a. (n.a. = <10% inhib. @100 μM)
19 | C[C@H]1NC(=O)[C@H]1NC(=O)OCc1ccc(C2CCCCC2)cc1 [Example 78, (4-Cyclohexylphenyl)-methyl-N-[(2R,3S)-2-methyl-4-oxo-azetidin-3-yl]-carbamate] | – | inhibition at 100 µM [1]: 55%
20 | C[C@H]1NC(=O)[C@H]1NC(=O)OCCCCCc1ccccc1 [Example 79, 5-Phenylpentyl-N-[(2R,3S)-2-methyl-4-oxo-azetidin-3-yl]-carbamate] | – | inhibition at 30 µM [2]: 35%

Second part, led by results:

Row | pIC50 | Structure (SMILES) | further results
21 | 5.18 | O=C(N[C@H]1CNC1=O)OC1CCC(Cc2ccccc2)CC1 (mixture of isomers) [Example 7, (1s,4R) and (1r,4S)-(4-Benzylcyclohexyl)-N-[(3S)-2-oxoazetidin-3-yl]-carbamate] | –
22 | 5.41 | CC(CCCCc1ccccc1)OC(=O)N[C@H]1CNC1=O (mixture of isomers) [Example 15, [(1S)- and (1R)-(1-Methyl-5-phenyl-pentyl)]-N-[(3S)-2-oxoazetidin-3-yl]-carbamate] | –
23 | 4.18 | CCCCCCCOC(=O)N[C@@H]1CNC1=O [Example 2, Heptyl-N-[(3R)-2-oxoazetidin-3-yl]-carbamate] | –
24 | 6.21 | O=C(N[C@H]1CNC1=O)OCCCCCc1ccccc1 [Example 3, 5-Phenylpentyl-N-[(3S)-2-oxoazetidin-3-yl]-carbamate] | –
25 | 4.73 | O=C(N[C@@H]1CNC1=O)OCCCCCc1ccccc1 [Example 4, 5-Phenylpentyl-N-[(3R)-2-oxoazetidin-3-yl]-carbamate] | –
26 | 5.24 | O=C(N[C@H]1CNC1=O)OC1CCC(=Cc2ccccc2)CC1 (stereo partly drawn) [Example 8, (R,E) and (S,Z)-(4-Benzylidenecyclohexyl)-N-[(3S)-2-oxoazetidin-3-yl]-carbamate] | –
27 | 5.18 | O=C(N[C@H]1CNC1=O)OCC/C=C/c1ccccc1 [Example 11, [(E)-4-Phenylbut-3-enyl]-N-[(3S)-2-oxoazetidin-3-yl]-carbamate] | –
28 | 5.80 | O=C(N[C@H]1CNC1=O)OCC/C=C\c1ccccc1 [Example 12, [(Z)-4-Phenylbut-3-enyl]-N-[(3S)-2-oxoazetidin-3-yl]-carbamate] | –
29 | 5.09 | Cc1cccc(C)c1CCCCOC(=O)N[C@H]1CNC1=O [Example 14, 4-(2,6-Dimethylphenyl)-butyl-N-[(3S)-2-oxoazetidin-3-yl]-carbamate] | –
30 | 5.10 | CC(C)(CCCCc1ccccc1)OC(=O)N[C@H]1CNC1=O [Example 16, (1,1-Dimethyl-5-phenyl-pentyl)-N-[(3S)-2-oxoazetidin-3-yl]-carbamate] | –
31 | 5.80 | CCCCCCOC(=O)N[C@H]1CNC1=O [Example 23, Hexyl-N-[(3S)-2-oxoazetidin-3-yl]-carbamate] | –
32 | 7.34 | CCCCc1ccc(COC(=O)N[C@H]2CNC2=O)cc1 [Example 26, (4-Butylphenyl)-methyl-N-[(3S)-2-oxoazetidin-3-yl]-carbamate] | –
33 | 5.70 | Cc1ccccc1CCCCOC(=O)N[C@H]1CNC1=O [Example 29, 4-(o-Tolyl)-butyl-N-[(3S)-2-oxoazetidin-3-yl]-carbamate] | –
34 | 5.92 | O=C(N[C@H]1CNC1=O)OCc1cccc(Cc2ccccc2)c1 [Example 32, (3-Benzylphenyl)-methyl-N-[(3S)-2-oxoazetidin-3-yl]-carbamate] | –
35 | 5.30 | O=C(N[C@H]1CNC1=O)OCCc1ccc(-c2ccccc2)cc1 [Example 36, 2-(4-Phenylphenyl)-ethyl-N-[(3S)-2-oxoazetidin-3-yl]-carbamate] | –
36 | 6.17 | O=C(N[C@H]1CNC1=O)OCCCCc1ccc(C(F)(F)F)cc1 [Example 38, 4-[4-(Trifluoromethyl)-phenyl]-butyl-N-[(3S)-2-oxoazetidin-3-yl]-carbamate] | –
37 | 6.00 | CCc1ccc(CCCCOC(=O)N[C@H]2CNC2=O)cc1 [Example 39, 4-(4-Ethylphenyl)-butyl-N-[(3S)-2-oxoazetidin-3-yl]-carbamate] | –
38 | 6.29 | Cc1ccccc1-c1ccc(COC(=O)N[C@H]2CNC2=O)cc1 [Example 40, [4-(o-Tolyl)-phenyl]-methyl-N-[(3S)-2-oxoazetidin-3-yl]-carbamate] | –
39 | 6.04 | Cc1ccccc1-c1ccc(COC(=O)N[C@H]2CNC2=O)cc1C [Example 41, [3-Methyl-4-(o-tolyl)-phenyl]-methyl-N-[(3S)-2-oxoazetidin-3-yl]-carbamate] | –
40 | 6.23 | Cc1cc(COC(=O)N[C@H]2CNC2=O)ccc1-c1ccccc1 [Example 44, (3-Methyl-4-phenyl-phenyl)-methyl-N-[(3S)-2-oxoazetidin-3-yl]-carbamate] | –
41 | 6.74 | CC(C)(C)c1ccc(COC(=O)N[C@H]2CNC2=O)cc1 [Example 57, (4-tert-Butylphenyl)-methyl-N-[(3S)-2-oxoazetidin-3-yl]-carbamate] | –
42 | 5.55 | C[C@@H]1NC(=O)[C@H]1NC(=O)OCCCCCc1ccccc1 [Example 75, 5-Phenylpentyl-N-[(2S,3S)-2-methyl-4-oxo-azetidin-3-yl]-carbamate] | –

Source: patent US9828338B2, “Carbamate derivatives of lactam based N-acylethanolamine acid amidase (NAAA) inhibitors” (The Regents of the University of California, priority 2013, dated 2017)
